The data set in a line: RP, Thermo Scientific Acclaim RSLC 120 C18, 100 × 2.1 mm, 2.2 µm, 30 °C, 0.2 mL/min, estimated dead time 1.1 min; A: 90% water + 10% methanol + 0.01% formic acid + 5 mM ammonium formate, pH 3.61; B: methanol + 0.01% formic acid + 5 mM ammonium formate, pH 3.61; gradient (min/%B) 0/1 1/1 2/39 13/99.9 15/99.9 15.1/1 20.1/1. The settings on record: stereoisomer not certain.
For `CCCCn1cc(C(=O)c2cccc3ccccc23)c2cccc(O)c21` [JWH-073-M-7-OH-Ind], the LC retention time was 11.2 min.

As for `O=C(O)CCCn1cc(C(=O)c2cccc3ccccc23)c2ccccc21` [JWH-073-M-N-Butanoic acid], the LC retention time is 9.33 min.

Consider `CCCCn1cc(C(=O)c2cccc3ccccc23)c2ccccc21` [JWH-073], for which the LC retention time was 11.9 min.

In the case of `CCCCCn1cc(C(=O)c2ccc(OC)c3ccccc23)c2ccccc21` [JWH-081], the LC retention time was 12.7 min.

Consider `Cc1ccc(C(=O)c2cn(CCCCCO)c3ccccc23)c2ccccc12` [JWH-122-M-N-5-OH-Pentyl], for which the LC retention time was 10.6 min.

Consider `CCCCCn1cc(C(=O)c2ccc(C)c3ccccc23)c2ccccc21` [JWH-122], for which the LC retention time was 12.9 min.

Take `CCCCCCn1cc(C(=O)c2cccc3ccccc23)cc1-c1ccccc1` [JWH-147]: the LC retention time was 13.3 min.

As for `CCCc1ccc(C(=O)c2cn(CCC)c3ccccc23)c2ccccc12` [JWH-180], the LC retention time is 12.7 min.

As for `O=C(c1cccc2ccccc12)c1cn(CCN2CCOCC2)c2cccc(O)c12` [JWH-200-M-4-OH-Ind], the LC retention time is 10.1 min.

`O=C(c1cccc2ccccc12)c1cn(CCN2CCOCC2)c2ccccc12` [JWH-200]: the LC retention time was 9.88 min.

Consider `CCCCCn1cc(C(=O)Cc2ccc(OC)cc2)c2ccccc21` [JWH-201], for which the LC retention time is 11.6 min.

For `CCCCCn1cc(C(=O)Cc2ccccc2Cl)c2ccccc21` [JWH-203], the LC retention time was 12.2 min.

On to `CCCCCn1cc(C(=O)c2ccc(CC)c3ccccc23)c2ccccc21` [JWH-210], for which the LC retention time was 13.2 min.

For `CCCCCn1cc(C(=O)Cc2ccccc2OC)c2ccccc21` [JWH-250], the LC retention time is 11.8 min.

With `CCCCCn1cc(C(=O)Cc2ccccc2C)c2ccccc21` [JWH-251], the LC retention time is 12.2 min.

As to `CCCCCn1cc(C(=O)Cc2cccc(OC)c2)c2ccccc21` [JWH-302], the LC retention time is 11.6 min.

As to `CCCCCn1cc(C(=O)c2cccc3ccccc23)cc1-c1ccccc1F` [JWH-307], the LC retention time is 12.8 min.

As for `CCCCCn1cc(C(=O)c2cccc3ccccc23)cc1-c1cccc(F)c1` [JWH-368], the LC retention time is 13 min.

Consider `CCCCCn1cc(C(=O)c2cccc3ccccc23)cc1-c1ccccc1C` [JWH-370], for which the LC retention time was 13.4 min.

Consider `CCCCCn1cc(C(=O)c2ccc(Br)c3ccccc23)c2ccccc21` [JWH-387], for which the LC retention time was 13.4 min.

As to `CCCCCn1cc(C(=O)c2ccc(Cl)c3ccccc23)c2ccccc21` [JWH-398], the LC retention time was 13.3 min.

Turning to `O=C(c1ccc(F)c2ccccc12)c1cn(CCCCCF)c2ccccc12` [JWH-412-5F. F2201], the LC retention time is 11.6 min.

`CCCCCn1cc(C(=O)c2ccc(F)c3ccccc23)c2ccccc21` [JWH-412]: the LC retention time is 12.8 min.

For the molecule `COC1=CC(=O)OC(C=Cc2ccccc2)C1` (stereo not given) [Kavain], the LC retention time is 8.32 min.

Turning to `CNC1(c2ccccc2Cl)CCCCC1=O` (stereo not given) [Ketamine], the LC retention time is 4.61 min.

Turning to `CC1=CC(=O)N2CC(=O)N(C)c3ccc(Cl)cc3C2(c2ccccc2)O1` (stereo not given) [Ketazolam], the LC retention time was 9.79 min.

Turning to `CCC(=O)C1(c2cccc(O)c2)CCN(C)CC1` [Ketobemidone], the LC retention time is 4.26 min.

Turning to `CC(=O)N1CCN(c2ccc(OCC3COC(Cn4ccnc4)(c4ccc(Cl)cc4Cl)O3)cc2)CC1` (stereo not given) [Ketoconazole], the LC retention time was 9.4 min.

As for `CC(C(=O)O)c1cccc(C(=O)c2ccccc2)c1` (stereo not given) [Ketoprofen], the LC retention time is 8.53 min.

As for `O=C(c1ccccc1)c1ccc2n1CCC2C(=O)O` (stereo not given) [Ketorolac], the LC retention time was 6.94 min.

Take `CN1CCC(=C2c3ccccc3CC(=O)c3sccc32)CC1` [Ketotifen]: the LC retention time is 5.54 min.

Take `CON=C(C(=O)OC)c1ccccc1COc1ccccc1C` [Kresoxim-methyl]: the LC retention time was 10.8 min.

With `N[C@@H](Cc1cc(I)c(Oc2cc(I)c(O)c(I)c2)c(I)c1)C(=O)O` [L-Thyroxine], the LC retention time was 9.39 min.

With `CCN(CC)C(=O)C1C=C2c3cccc4[nH]cc(c34)CC2NC1` (stereo not given) [LSD-Nor], the LC retention time is 5.56 min.

Take `CC(CCc1ccccc1)NCC(O)c1ccc(O)c(C(N)=O)c1` (stereo not given) [Labetalol]: the LC retention time is 5.74 min.

Take `CCOC(=O)C(C)OC(=O)c1cc(Oc2ccc(C(F)(F)F)cc2Cl)ccc1[N+](=O)[O-]` (stereo not given) [Lactofen]: the LC retention time is 12.2 min.

As to `Cc1c(OCC(F)(F)F)ccnc1CS(=O)c1nc2ccccc2[nH]1` (stereo not given) [Lansoprazole], the LC retention time was 8.38 min.

In the case of `COc1ccc(CC2c3cc(OC)c(OC)cc3CCN2C)cc1OC` (stereo not given) [Laudanosine], the LC retention time was 4.71 min.

For `CCCCCCCCCCCC(=O)NCCC[N+](C)(C)CC(=O)O` [Lauramidopropylbetaine], the LC retention time was 13.1 min.

With `CCCCCCCCCCCC(=O)NCC(C)O` (stereo not given) [Lauric isopropanolamide], the LC retention time is 12.1 min.

On to `CCCCCCCCCCCC(=O)N(CCO)CCO` [Lauryl diethanolamide], for which the LC retention time is 11.7 min.

In the case of `O=c1[nH]c2c(c(=O)n1C1CCCCC1)CCC2` [Lenacil], the LC retention time was 8.27 min.

`COP(=S)(Oc1cc(Cl)c(Br)cc1Cl)c1ccccc1` (stereo not given) [Leptophos]: the LC retention time was 13.8 min.

In the case of `COC(=O)C1=C(C)NC(C)=C(C(=O)OC(C)(C)CN(C)CCC(c2ccccc2)c2ccccc2)C1c1cccc([N+](=O)[O-])c1` (stereo not given) [Lercanidipine], the LC retention time was 11.1 min.

Consider `CCCCOCCOCCSC#N` [Lethane 384], for which the LC retention time is 8.12 min.

With `CN(C)c1ccc(C(c2ccccc2)c2ccc(N(C)C)cc2)cc1` [Leuco malachite green (LMG)], the LC retention time is 13.7 min.

`c1ccc(C2CN3CCSC3=N2)cc1` (stereo not given) [Levamisol]: the LC retention time is 3.68 min.

On to `CC(C)(C)NCC(O)COc1cccc2c1CCCC2=O` (stereo not given) [Levobunolol], for which the LC retention time was 4.84 min.

Consider `CC1CN(C2CCC(C#N)(c3ccc(F)cc3)CC2)CCC1(C(=O)O)c1ccccc1` (stereo not given) [Levocabastine], for which the LC retention time is 6.95 min.

As for `CNCC(C)CN1c2ccccc2Sc2ccc(OC)cc21` (stereo not given) [Levomepromazine-Nor], the LC retention time is 8.33 min.

Consider `COc1ccc2c(c1)N(CC(C)CN(C)C)c1ccccc1S2` (stereo not given) [Levomepromazine], for which the LC retention time is 8.14 min.

Consider `CNC(C)CC1CCCCC1` (stereo not given) [Levopropylhexedrine], for which the LC retention time is 5.74 min.

Regarding `CC[N+]([O-])(CC)CC(=O)Nc1c(C)cccc1C` [Lidocaine-N-oxide], the LC retention time was 5.34 min.

Turning to `CC#CCn1c(N2CCCC(N)C2)nc2c1c(=O)n(Cc1nc(C)c3ccccc3n1)c(=O)n2C` (stereo not given) [Linagliptin], the LC retention time was 6.01 min.

On to `CCCC1CC(C(=O)NC(C(C)O)C2OC(SC)C(O)C(O)C2O)N(C)C1` (stereo not given) [Lincomycin], for which the LC retention time is 4.08 min.

Consider `CC(=O)NCC1CN(c2ccc(N3CCOCC3)c(F)c2)C(=O)O1` (stereo not given) [Linezolid], for which the LC retention time is 5.56 min.

In the case of `CON(C)C(=O)Nc1ccc(Cl)c(Cl)c1` [Linuron], the LC retention time was 9.3 min.

On to `NCCCCC(NC(CCc1ccccc1)C(=O)O)C(=O)N1CCCC1C(=O)O` (stereo not given) [Lisinopril], for which the LC retention time is 3.98 min.

For the molecule `CCN(CC)C(=O)NC1C=C2c3cccc4[nH]cc(c34)CC2N(C)C1` (stereo not given) [Lisuride], the LC retention time is 5.92 min.

For the molecule `O=C(O)Cc1cn(-c2ccccc2)nc1-c1ccc(Cl)cc1` [Lonazolac], the LC retention time is 10.4 min.

Consider `CN1CCN(C=C2N=C3CN=C(c4ccccc4Cl)c4cc([N+](=O)[O-])ccc4N3C2=O)CC1` [Loprazolam], for which the LC retention time was 6.95 min.

Take `CCOC(=O)N1CCC(=C2c3ccc(Cl)cc3CCc3cccnc32)CC1` [Loratadine]: the LC retention time is 11.5 min.

Regarding `O=C1Nc2ccc(Cl)cc2C(c2ccccc2Cl)=NC1O` (stereo not given) [Lorazepam], the LC retention time is 8.36 min.

As for `CN1C(=O)C(O)N=C(c2ccccc2Cl)c2cc(Cl)ccc21` (stereo not given) [Lormetazepam], the LC retention time was 8.61 min.

Consider `CCCCc1nc(Cl)c(CO)n1Cc1ccc(-c2ccccc2-c2nn[nH]n2)cc1` [Losartan], for which the LC retention time is 8.19 min.

With `CCC(C)C(=O)OC1CC(C)C=C2C=CC(C)C(CCC3CC(O)CC(=O)O3)C21` (stereo not given) [Lovastatin], the LC retention time is 12 min.

For `O=C(NC(=O)c1c(F)cccc1F)Nc1cc(Cl)c(OC(F)(F)C(F)C(F)(F)F)cc1Cl` (stereo not given) [Lufenuron], the LC retention time is 12.5 min.

Take `CC(C)C(O)(C(=O)OCC1=CC[N+]2([O-])CCC(O)C12)C(C)O` (stereo not given) [Lycopsamine-N-oxide]: the LC retention time was 3.94 min.

Regarding `CC(C)C(O)(C(=O)OCC1=CCN2CCC(O)C12)C(C)O` (stereo not given) [Lycopsamine], the LC retention time is 3.65 min.

Turning to `CC(O)(C(N)=O)c1ccccc1` (stereo not given) [M-144], the LC retention time is 12.9 min.

Consider `COC(=O)C(NC(=O)c1nn(CC2CCCCC2)c2ccccc12)C(C)C` (stereo not given) [MA-CHMINACA], for which the LC retention time is 12.4 min.

With `CC(C)(C)C(NC(=O)c1nn(CC2CCCCC2)c2ccccc12)C(N)=O` (stereo not given) [MAB-CHMINACA], the LC retention time was 11.8 min.

Regarding `CC(=O)OC1C=CC2C3Cc4ccc(O)c5c4C2(CCN3C)C1O5` (stereo not given) [MAM (6-O-Monoacetylmorphine)], the LC retention time is 3.75 min.

Turning to `CCC(Cc1ccc2c(c1)OCO2)NC` (stereo not given) [MBDB], the LC retention time is 4.66 min.

With `COC(=O)COc1ccc(Cl)cc1C` [MCPA-methylester], the LC retention time was 9.85 min.
